Assay results published in patent US8058306B2, “Phenyl pyrrole aminoguanidine derivatives” (Action Pharma A/S, priority 2006, dated 2011).
Values joined by “and” are separate entries in the source; they are usually repeats but may differ in a detail not shown here. Equal values may be shown once. “Also recorded” adds a separate entry of the source. Read-outs that look alike come from different tables or passages of the source.

Assay: Plasma kinetics in rat following intravenous and oral administration
Type: in vivo, Sprague Dawley rats
Conditions: male rats
Protocol: This study determined the intravenous pharmacokinetics and oral bioavailability of compound 1 of the invention (see FIG. 1A, structure no. 1), compound 2 of the invention (see FIG. 1D, structure no. 19) and compound 3 of the invention (see FIG. 1I, structure no. 53) following administration to Sprague Dawley rats at a dose level of 10 mg/kg.
Six groups of 3 male rats received either a single intravenous or single oral administration of compound 1, 2 or 3 of the invention at a dose level of 10 mg/kg. Blood samples were obtained at various times after dosing. Plasma samples were analysed for unchanged test item using a suitable LC-MS/MS method. Pharmacokinetic parameters were estimated from individual plasma concentrations.
Eighteen male rats each received either a single intravenous or a single oral administration of either compound 1, 2 or 3 at a dose level of 10 mg/kg. The formulation was orally administered to each animal by gastric gavage and intravenously administered to each animal via a tail vein. The dose was administered at a dose volume of 5 mL/kg. The formulations were administered to each animal according to the details in the following table:
Blood samples (ca 0.3 mL) were removed from the femoral vein of each animal into tubes containing lithium heparin as anticoagulant.
Blood samples were collected from 3 rats at the following times after dose administration: • 3, 6, 15, 45 min and 1.5, 2.5, 4, 6, 8, 24 h post dose. Oral Administration
Blood samples were collected from 3 rats at the following times after dose administration: • 5, 15, 45 min and 1.5, 2.5, 4, 6, 8, 24 h post dose. Processing of Blood Samples
Pharmacokinetic parameters of compound 1, 2 and 3 were derived by non-compartmental analysis using WinNonLin Pro version 5.0.1 (Pharsight 2005). The following parameters were derived, where appropriate, from the individual plasma concentration versus time profiles:
• F % The absolute oral bioavailability calculated as [AUC0-t (oral)*Dose(iv)/AUC0-t (iv)*Dose (oral)]*100 based on mean values derived after oral and intravenous administration Consideration was given to the estimation of λz and corresponding t1/2 values. Three or more points are required within the terminal phase for λz and t1/2 to be estimated. The following additional variables were tabulated to aid identification of potentially unreliable estimates of t1/2 and AUC:
Pharmacokinetic parameters were reported as geometric mean except Tmax which was reported as the median. Geometric coefficient of variation was calculated as: […]
Actual sampling times were used for all calculations of pharmacokinetic parameters. Plasma concentrations that were below the limit of quantification were taken as zero for the pharmacokinetic analysis.

[1] = oral 10 mg/kg, individual animals, acetate, 10 mg/kg

Compound: N=C(N)NN=CC=Cc1cccn1-c1ccc(Cl)cc1 [Compound 1, [1-(4-chlorophenyl)-1H-pyrrol-2-yl-allylideneamino]guanidinium acetate]
- Cmax (male, Sprague Dawley, rat, plasma, po, 10 mg/kg, oral 10 mg/kg, Arithmetic Mean, read-out: Cmax): 104 ng/mL
- Tmax (male, Sprague Dawley, rat, plasma, po, 10 mg/kg, oral 10 mg/kg, Arithmetic Mean, read-out: tmax): 6.65 h
- AUC(0-t) (male, Sprague Dawley, rat, plasma, po, 10 mg/kg, oral 10 mg/kg, Geometric mean, read-out: AUC0-t): 1340 ng·h/mL
- Cmax (male, Sprague Dawley, rat, plasma, po, 10 mg/kg, oral 10 mg/kg, Geometric mean, read-out: Cmax): 104 ng/mL
- Tmax (male, Sprague Dawley, rat, plasma, po, 10 mg/kg, oral 10 mg/kg, Geometric mean, read-out: tmax): 6.34 h
- AUC(0-t) (male, Sprague Dawley, rat, plasma, po, 10 mg/kg, oral 10 mg/kg, Median, read-out: AUC0-t): 1460 ng·h/mL
- Cmax (male, Sprague Dawley, rat, plasma, po, 10 mg/kg, oral 10 mg/kg, Median, read-out: Cmax): 104 ng/mL
- Tmax (male, Sprague Dawley, rat, plasma, po, 10 mg/kg, oral 10 mg/kg, Median, read-out: tmax): 7.97 h
- AUC(0-inf) (male, Sprague Dawley, rat, plasma, po, 10 mg/kg, oral 10 mg/kg, individual animals): 1130 ng·h/mL
- AUC(0-t) (male, Sprague Dawley, rat, plasma, po, 10 mg/kg, oral 10 mg/kg, individual animals, read-out: AUC0-t): 1500 ng·h/mL
- Cmax (male, Sprague Dawley, rat, plasma, po, 10 mg/kg, oral 10 mg/kg, individual animals, read-out: Cmax): 106 ng/mL
- MRT (male, Sprague Dawley, rat, plasma, po, 10 mg/kg, oral 10 mg/kg, individual animals, read-out: MRT): 7.86 h
- half-life (male, Sprague Dawley, rat, plasma, po, 10 mg/kg, oral 10 mg/kg, individual animals, read-out: t1/2 (converted)): 4.61 h
- Tmax (male, Sprague Dawley, rat, plasma, po, 10 mg/kg, oral 10 mg/kg, individual animals, read-out: tmax): 7.97 h
- Tmax (male, Sprague Dawley, rat, plasma, po, 10 mg/kg, oral 10 mg/kg, from mean plasma concentrations, read-out: time post dose at which maximum plasma concentration was observed (tmax)): 8 h
- half-life (male, Sprague Dawley, rat, plasma, po, 10 mg/kg, oral 10 mg/kg, read-out: apparent terminal half-life (converted)): 4.61 h
- concentration at 0.08 h (male, Sprague Dawley, rat, plasma, po, 10 mg/kg, single oral 10 mg/kg, 0.08 h, individual animals, LLOQ 2.50 (Table X: * 5.0, ** 25, diluted samples), read-out: Sample Concentration in plasma): 2.66 ng/mL
- concentration at 0.08 h (male, Sprague Dawley, rat, plasma, po, 10 mg/kg, single oral 10 mg/kg, 0.08 h, mean, read-out: Mean Concentration in plasma): 2.66 ng/mL
- concentration at 0.25 h (male, Sprague Dawley, rat, plasma, po, 10 mg/kg, single oral 10 mg/kg, 0.25 h, individual animals, read-out: Sample Concentration in plasma): 6.53 ng/mL
- concentration at 0.25 h (male, Sprague Dawley, rat, plasma, po, 10 mg/kg, single oral 10 mg/kg, 0.25 h, mean of 3, read-out: Mean Concentration in plasma): 7.29 ng/mL
- concentration at 0.75 h (male, Sprague Dawley, rat, plasma, po, 10 mg/kg, single oral 10 mg/kg, 0.75 h, mean of 3, read-out: Mean Concentration in plasma): 17.3 ng/mL
- concentration at 1.5 h (male, Sprague Dawley, rat, plasma, po, 10 mg/kg, single oral 10 mg/kg, 1.5 h, mean of 3, read-out: Mean Concentration in plasma): 39.1 ng/mL
- concentration at 2.5 h (male, Sprague Dawley, rat, plasma, po, 10 mg/kg, single oral 10 mg/kg, 2.5 h, individual animals, read-out: Sample Concentration in plasma): 65.9 ng/mL
- concentration at 2.5 h (male, Sprague Dawley, rat, plasma, po, 10 mg/kg, single oral 10 mg/kg, 2.5 h, mean of 3, read-out: Mean Concentration in plasma): 60.1 ng/mL
- concentration at 4 h (male, Sprague Dawley, rat, plasma, po, 10 mg/kg, single oral 10 mg/kg, 4 h, individual animals, read-out: Sample Concentration in plasma): 102 ng/mL
- concentration at 4 h (male, Sprague Dawley, rat, plasma, po, 10 mg/kg, single oral 10 mg/kg, 4 h, mean of 3, read-out: Mean Concentration in plasma): 90.3 ng/mL
- concentration at 6 h (male, Sprague Dawley, rat, plasma, po, 10 mg/kg, single oral 10 mg/kg, 6 h, individual animals, read-out: Sample Concentration in plasma): 72.3 ng/mL
- concentration at 6 h (male, Sprague Dawley, rat, plasma, po, 10 mg/kg, single oral 10 mg/kg, 6 h, mean of 3, read-out: Mean Concentration in plasma): 86.5 ng/mL
- concentration at 8 h (male, Sprague Dawley, rat, plasma, po, 10 mg/kg, single oral 10 mg/kg, 8 h, individual animals, LLOQ 2.50, read-out: Sample Concentration in plasma): 68.8 ng/mL
- concentration at 8 h (male, Sprague Dawley, rat, plasma, po, 10 mg/kg, single oral 10 mg/kg, 8 h, mean, LLOQ 2.50, read-out: Mean Concentration in plasma): 92.9 ng/mL
- concentration at 24 h (male, Sprague Dawley, rat, plasma, po, 10 mg/kg, single oral 10 mg/kg, 24 h, individual animals, LLOQ 2.50, read-out: Sample Concentration in plasma): 5.35 ng/mL
- concentration at 24 h (male, Sprague Dawley, rat, plasma, po, 10 mg/kg, single oral 10 mg/kg, 24 h, mean, LLOQ 2.50, read-out: Mean Concentration in plasma): 7.68 ng/mL
- mean absorption time (MAT) (oral 10 mg/kg): 2.10 h
- MAT (oral 10 mg/kg, individual animals): 2.10 h
- AUC(0-t) [1]: 1094 ng·h/mL and 1460 ng·h/mL
- Cmax [1]: 102 ng/mL
- Tmax [1]: 4.00 h and 7.98 h
- maximum observed plasma concentration, mean value (oral 10 mg/kg, at tmax): 92.9 ng/mL
- Sample Concentration in plasma (single intravenous 10 mg/kg, 0.05 h, individual animals, acetate, 10 mg/kg): 1650 ng/mL and 3630 ng/mL and 1460 ng/mL
- Sample Concentration in plasma (single intravenous 10 mg/kg, 0.1 h, individual animals, acetate, 10 mg/kg): 1220 ng/mL and 1200 ng/mL
- Sample Concentration in plasma (single intravenous 10 mg/kg, 0.25 h, individual animals, acetate, 10 mg/kg): 830 ng/mL and 696 ng/mL
- Sample Concentration in plasma (single intravenous 10 mg/kg, 0.75 h, individual animals, acetate, 10 mg/kg): 332 ng/mL and 402 ng/mL
- Sample Concentration in plasma (single intravenous 10 mg/kg, 1.5 h, individual animals, acetate, 10 mg/kg): 236 ng/mL and 340 ng/mL
- Sample Concentration in plasma (single intravenous 10 mg/kg, 2.5 h, individual animals, acetate, 10 mg/kg): 202 ng/mL and 259 ng/mL
- Sample Concentration in plasma (single intravenous 10 mg/kg, 4 h, individual animals, acetate, 10 mg/kg): 208 ng/mL and 238 ng/mL
- Sample Concentration in plasma (single intravenous 10 mg/kg, 6 h, individual animals, acetate, 10 mg/kg): 172 ng/mL and 168 ng/mL
- Sample Concentration in plasma (single intravenous 10 mg/kg, 8 h, individual animals, LLOQ 2.50, acetate, 10 mg/kg): 151 ng/mL and 135 ng/mL and 5.04 ng/mL
- Sample Concentration in plasma (single intravenous 10 mg/kg, 24 h, individual animals, LLOQ 2.50, acetate, 10 mg/kg): 13.2 ng/mL and 16.8 ng/mL and 30.7 ng/mL
- adverse effects (single intravenous or oral administration, 10 mg/kg, acetate): No adverse effects; also recorded: No adverse affects
- Sample Concentration in plasma (single oral 10 mg/kg, 0.08 h, individual animals, LLOQ 2.50 (Table X: * 5.0, ** 25, diluted samples), acetate, 10 mg/kg): *<LLOQ; also recorded: **<LLOQ
- Sample Concentration in plasma (single oral 10 mg/kg, 0.25 h, individual animals, acetate, 10 mg/kg): 5.92 ng/mL and 9.43 ng/mL
- Sample Concentration in plasma (single oral 10 mg/kg, 0.75 h, individual animals, acetate, 10 mg/kg): 11.8 ng/mL and 15.9 ng/mL and 24.1 ng/mL
- Sample Concentration in plasma (single oral 10 mg/kg, 1.5 h, individual animals, acetate, 10 mg/kg): 20.5 ng/mL and 52.1 ng/mL and 44.6 ng/mL
- Sample Concentration in plasma (single oral 10 mg/kg, 2.5 h, individual animals, acetate, 10 mg/kg): 57.1 ng/mL and 57.2 ng/mL
- Sample Concentration in plasma (single oral 10 mg/kg, 4 h, individual animals, acetate, 10 mg/kg): 79.4 ng/mL and 89.4 ng/mL
- Sample Concentration in plasma (single oral 10 mg/kg, 6 h, individual animals, acetate, 10 mg/kg): 98.4 ng/mL and 88.8 ng/mL
- Sample Concentration in plasma (single oral 10 mg/kg, 8 h, individual animals, LLOQ 2.50, acetate, 10 mg/kg): 104 ng/mL and 106 ng/mL
- Sample Concentration in plasma (single oral 10 mg/kg, 24 h, individual animals, LLOQ 2.50, acetate, 10 mg/kg): 7.50 ng/mL and 10.2 ng/mL
